# In patent publication US9642921B2, “Cancer combination therapy and recombinant vectors” (Tocagen Inc., priority 2012, dated 2017):
# Legend:
# [1] = system: Tu-2449 cells (naive and Toca 511-transduced); test: In vitro 5-FC sensitivity assay (XTT viability); format: cell-based, mouse; conditions: day 6
# Description: (§1) Tu-2449 and U-87MG cells were infected with ˜1×10^4 transducing units (TU) ml^−1 of Toca 511 in the presence of polybrene (8 mgml^−1). Cells were passaged 2-3 times a week for 17 days. […] Cells were seeded on day 0 at a concentration of 1×10^3 cells per well of a 96-well plate in […] of culture medium (Dulbecco's modified Eagle's mediump10% fetal calf serum+gentamicin (17 mg per 100 ml)). On day 1, […] of culture medium containing 5-FC (range 0-1000 mgml^−1), TMZ (range 0-100 mgml^−1) or both drugs (5-FC (range 0-1.6 mgml^−1) and TMZ (2 mgml^−1)) was added to the cells. Viability was measured on day 6 using Cell Proliferation Kit II (XTT) (Roche, Indianapolis, Ind., USA) as recommended by the manufacturer.
# (§2) Two glioma lines U-87MG (TMZ-sensitive) and Tu-2449 (TMZ-resistant) were chosen to examine the compatibility of TMZ and Toca 511p5-FC treatment in previously infected cells. These two cell lines were cultured as either non-transduced control or 100% Toca 511-transduced cells. Sensitivity to 5-FC was examined by measuring cell viability after culture in increasing amounts of 5-FC. […] In addition, cell viability was examined in the nontransduced and transduced cell lines treated with increasing amounts of TMZ.
# [2] = system: U-87MG cells (naive and Toca 511-transduced); test: In vitro 5-FC sensitivity assay (XTT viability); format: cell-based, human; conditions: day 6
# Description: as §1, §2
# [3] = pharmacokinetic studies; cited from earlier work
# [4] = system: LN-229; test: In vitro RRV-GFP spread (FACS); format: cell-based, human; conditions: 1 and 2 mgml^−1 TMZ added 24 h before RRV-GFP, by day 16
# Description: (§3) Two different TMZ schedules were tested. To test the effect of preincubation with TMZ, cells were seeded at a density of 1×10^5 cells per well on six-well plates. After 24 h, different concentrations of TMZ were added to the cells. The next day, cells were infected with RRV-GFP vector at a multiplicity of infection of 0.1. To test the effect of concomitant TMZ, cells were seeded at a density of 1×10^5 cells per well on six-well plates. After 48 h, cells were infected with RRV-GFP vector at a multiplicity of infection of 0.1 in the presence of different concentrations of TMZ. The following day, cells were transferred to T25 flasks keeping the indicated TMZ concentration. Cells were analyzed three times a week by enhanced green fluorescent protein fluorescence-activated cell sorting analysis for virus spread, maintaining the indicated TMZ concentration during the entire experiment.
# (§4) To test any possible effect of TMZ on the spread of Toca 511, the same panel of glioma cells was treated with different concentrations of TMZ depending on the TMZ sensitivity of the cells determined in the clonogenic assay in FIG. 1b. In addition, vector with the same backbone as Toca 511 but encoding a GFP transgene (RRV-GFP) was used to assess vector spread by fluorescence-activated cell sorting analysis. Two TMZ treatment schedules were tested. The first schedule tested treatment with varying concentrations of TMZ before and during the time of vector infection, and the second schedule tested treatment with varying concentrations of TMZ at the same time as the addition of vector. In the first schedule, glioma cells were incubated with different concentrations of TMZ 24 h before the addition of RRVGFP at a multiplicity of infection of 0.1. […] There was an initial lag or decrease in GFP positivity at earlier time points (FIG. 2a). […] In the second schedule, when TMZ and RRV-GFP were added to the glioma cells concomitantly, the same trend was observed; after an initial lag, cells reached nearly 100% GFP positivity in the presence of TMZ (FIG. 2b). The observed infectivity lag was likely due to induction of apoptosis in a certain percentage of cells with TMZ treatment. Surviving cells were still susceptible to infection with RRV-GFP and able to produce more RRV-GFP virus for further infection and spread within the culture dish. […] Rather the data is consistent with the conclusion that slowing of tumor cell replication with the anticancer drug TMZ, slows the replication of the RRV because of the inhibition of cancer cell replication and the requirement for cell replication for productive infection with RRV.
# [5] = system: LN-18; test: In vitro RRV-GFP spread (FACS); format: cell-based, human; conditions: TMZ up to 20 mgml^−1 added 24 h before RRV-GFP, by day 19
# Description: as §3, §4
# [6] = system: 8-MG-BA; test: In vitro RRV-GFP spread (FACS); format: cell-based, human; conditions: 1 and 2 mgml^−1 TMZ added 24 h before RRV-GFP, by day 16
# Description: as §3, §4
# [7] = system: U-87MG; test: In vitro RRV-GFP spread (FACS); format: cell-based, human; conditions: 10 mgml^−1 of TMZ
# Description: as §3, §4
# [8] = Dose finding study 5-FC and TMZ, hematological examination, healthy B6C3/F1 mice; format: in vivo, mouse
# Description: A dose finding study was conducted in healthy B6C3/F1 hybrid mice to evaluate the clinical effects and possible hematological changes during concomitant administration of 5-FC and TMZ. Both drugs are known to cause hematological toxicity in some circumstances and therefore it is important to examine any potential drug interaction with respect to this potentially toxic side effect. Three concentrations of TMZ (25, 60 and 125 mgkg^−1) in combination with a fixed dose of 5-FC (500 mgkg^−1 per dose) were administered intraperitoneal SID for 4 consecutive days starting on days 1, 8, 22 and 36. Mice were terminated on day 51 for hematological examination.
# [9] = system: Tu-2449; test: In vitro RRV-GFP spread (FACS); format: cell-based, mouse; conditions: TMZ up to 20 mgml^−1 added 24 h before RRV-GFP, by day 19
# Description: as §3
# (§5) To test any possible effect of TMZ on the spread of Toca 511, the same panel of glioma cells was treated with different concentrations of TMZ depending on the TMZ sensitivity of the cells determined in the clonogenic assay in FIG. 1b. In addition, vector with the same backbone as Toca 511 but encoding a GFP transgene (RRV-GFP) was used to assess vector spread by fluorescence-activated cell sorting analysis. Two TMZ treatment schedules were tested. […]
# [10] = Dose finding study 5-FC and TMZ, hematological examination, healthy athymic mice; format: in vivo, mouse
# Description: To test the effect of the combination therapy of TMZ and Toca 511+5-FC treatment in a TMZ-sensitive cell line in vivo, the U-87MG cell line was used in an orthotopic xenograft glioma model in immunocompromised mice. A similar TMZ dose finding study as for the C3B6F1-immunocompetent mice was conducted in healthy athymic mice to evaluate the clinical effects and possible hematological changes during concomitant administration of 5-FC and TMZ. Two concentrations of TMZ (25 and 60 mgkg^−1) in combination with a fixed dose of 5-FC (500 mgkg^−1 per dose) were administered intraperitoneal SID for 4 consecutive days starting on days 1, 15, 29 and 43. Mice were terminated on day 53 for hematological examination.
# [11] = system: five glioma cell lines (U-87MG, LN-18, LN-229, 8-MG-BA, Tu-2449); format: cell-based, human and mouse
# Description: as §3, §5
# [12] = system: human NET cell lines; conditions: capecitabine and TMZ in human NET cell lines; cited from earlier work
# [13] = highest TMZ dose (125 mgm^−2) coadministered with 5-FC
structure (smiles),measurement,setting,value
"Nc1nc(=O)[nH]cc1F [5-FC, 5-fluorocytosine]",sensitivity to 5-FC (cell viability),[1]; Toca 511-transduced Tu-2449,sensitive to 5-FC in a dose-dependent manner
same,sensitivity to 5-FC (cell viability),"[1]; naive (non-transduced) Tu-2449, up to 100 mgml^−1 5-FC",highly resistant
same,sensitivity to 5-FC (cell viability),[2]; Toca 511-transduced U-87MG,sensitive to 5-FC in a dose-dependent manner
same,sensitivity to 5-FC (cell viability),"[2]; naive (non-transduced) U-87MG, up to 100 mgml^−1 5-FC",highly resistant
"O=c1[nH]cc(F)c(=O)[nH]1 [5-FU, 5-fluorouracil]",blood brain barrier passage,[3],crosses the blood brain barrier
"Cn1nnc2c(C(N)=O)ncn2c1=O [TMZ, Temozolomide]",GFP positivity,[4],100%
same,GFP positivity,[5],~100%
same,GFP positivity,[6],100%
same,cells killed,[7],~90%
same,hematological changes,[8]; TMZ 25 mgkg^−1 per day (human equivalent of 75 mgm^−2) with 5-FC 500 mgkg^−1 per dose,without significant hematological changes
same,leukocytes,[8]; [13],almost complete loss
same,platelet counts,[8]; [13],significant reduction
same,GFP positivity,[9],~100%
same,hematological changes,[10]; TMZ 60 mgkg^−1 (human equivalent of 200 mgm^−2) in combination with 5-FC,"substantially severe hematological changes (leukocytopenia, thrombocytopenia)"
same,increase in ALT activity,[10]; TMZ 60 mgkg^−1 in combination with 5-FC,five fold increase
same,changes in hematological parameters,[10]; lower TMZ dose of 25 mgkg^−1 in combination with 5-FC,mild changes
same,GFP positivity,[11],~100%
CCCCCOC(=O)Nc1nc(=O)n([C@@H]2O[C@H](C)[C@@H](O)[C@H]2O)cc1F [capecitabine],"induction of apoptosis, combination effect",[12],synergistic
